# Test results from US20260184712A1, “Heterocyclic Compounds as ENT Inhibitors and Compounds for Use in the Treatment of Cancers” (iTeos Belgium SA, priority 2022, published 2026).
# Biological target: T1, human ENT1 (Homo sapiens, UniProt Q99808)
# T1 construct: JAR cells expressing ENT1 were purchased from ATCC; host or cells: JAR cells
# T1 sequence (Q99808 1-456): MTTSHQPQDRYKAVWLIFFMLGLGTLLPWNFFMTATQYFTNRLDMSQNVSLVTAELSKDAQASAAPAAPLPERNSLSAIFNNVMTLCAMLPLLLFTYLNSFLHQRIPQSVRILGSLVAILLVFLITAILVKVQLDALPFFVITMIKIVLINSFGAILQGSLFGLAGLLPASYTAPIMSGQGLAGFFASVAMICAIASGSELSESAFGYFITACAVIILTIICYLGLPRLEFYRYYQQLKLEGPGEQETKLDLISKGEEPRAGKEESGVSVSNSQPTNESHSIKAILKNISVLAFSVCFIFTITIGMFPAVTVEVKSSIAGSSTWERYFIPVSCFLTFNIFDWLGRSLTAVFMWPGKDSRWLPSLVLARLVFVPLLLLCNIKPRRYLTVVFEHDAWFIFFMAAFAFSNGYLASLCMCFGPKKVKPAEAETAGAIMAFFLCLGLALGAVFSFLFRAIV
# Assay: ENT1 binding assay (competition with Sahenta-DY647 on JAR cells)
# Conditions: competition with SAHENTA-DY647 binding; IC50 categorized; read-out: Binding Assay IC50
# Outline: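 Whole-cell competition on JAR cells (native ENT1): 50,000 cells pre-incubated 30 min at 4 °C with compound in HBSS/10 mM Hepes/0.1% BSA, then 100 nM Sahenta-DY647 added for 30 min at 4 °C. After washing, fluorescence (Ex 630/Em 670 nm) read; IC50 from sigmoidal fit, averaged as pIC50.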
row,IC50 [nM],SMILES
1,20 to 500,C[C@H]1O[C@@H](n2c(NCC3CCOC3)nc3c(OCc4ccc(Cl)cc4)ncnc32)[C@H](O)[C@@H]1O (stereo partly drawn) [Compound 110]
2,> 500,C[C@H]1O[C@@H](n2cnc3c(OCc4ccc([N+](=O)[O-])cc4)nc(Cl)nc32)[C@H](O)[C@@H]1O [Compound 222]
3,> 500,C[C@H]1O[C@@H](n2cnc3c(OCCc4ccc(OC(F)F)cc4)ncnc32)[C@H](O)[C@@H]1O [Compound 276]
4,> 500,C[C@H]1O[C@@H](n2cnc3c(OCc4ccc([N+](=O)[O-])cc4)nccc32)[C@H](O)[C@@H]1O [Compound 411]
5,1 to 20,C[C@H]1O[C@@H](n2c(NC3CCCC3)nc3c(OCc4ccc(OC(F)(F)F)cc4)ncnc32)[C@H](O)[C@@H]1O [Compound 88]
6,> 500,COc1ccc(COc2ncnc3c2ncn3[C@@H]2O[C@H](C)[C@@H](O)[C@H]2O)cc1C(F)(F)F [Compound 230]
7,> 500,Cc1nc(OCc2ccc([N+](=O)[O-])cc2)c2ncn([C@@H]3O[C@H](C)[C@@H](O)[C@H]3O)c2n1 [Compound 259]
8,> 500,C[C@H]1O[C@@H](n2cnc3c(NCc4ccc(N5CCOCC5)cc4)ncnc32)[C@H](O)[C@@H]1O [Compound 385]
9,< 1,"CC1OC(n2c(NC3CC(C)(O)C3)nc3c(N4CCc5ccc([N+](=O)[O-])cc5C4)ncnc32)C(O)C1O (single isomer, unassigned) [Compound 141]"
10,> 500,Cc1nc(=O)c2cc(COc3ncnc4c3ncn4[C@@H]3O[C@H](C)[C@@H](O)[C@H]3O)ccc2[nH]1 [Compound 367]

# The next lines start with the compound.
row,SMILES,IC50 [nM]
1,CCOC(=O)CC[C@H]1O[C@@H](n2cnc3c(OCc4ccc([N+](=O)[O-])cc4)ncnc32)[C@H](O)[C@@H]1O [Compound 219],> 500
2,C[C@H]1O[C@@H](n2c(N[C@H]3CC[C@@](C)(O)CC3)nc3c(OCc4ccc(F)cc4)ncnc32)[C@H](O)[C@@H]1O [Compound 130],1 to 20
3,Cc1cc2cc(CNc3ncnc4c3ncn4[C@@H]3O[C@H](C)[C@@H](O)[C@H]3O)ccc2[nH]1 [Compound 339],> 500
4,C[C@H]1O[C@@H](n2cnc3c(OCc4ccc(-c5cnco5)cc4)ncnc32)[C@H](O)[C@@H]1O [Compound 291],> 500
5,C[C@H]1O[C@@H](n2cnc3c(NCc4ccc5ncccc5c4)ncnc32)[C@H](O)[C@@H]1O [Compound 376],> 500
6,C[C@H]1O[C@@H](n2cnc3c(C(=O)NCc4ccc(Cl)cc4)ncnc32)[C@H](O)[C@@H]1O [Compound 353],> 500
7,C[C@H]1O[C@@H](n2cnc3c(OCCc4cnc(C#N)c(F)c4)ncnc32)[C@H](O)[C@@H]1O [Compound 265],> 500
8,C[C@H]1O[C@@H](n2cnc3c(CO[C@H]4CC[C@H](C(F)(F)F)CC4)ncnc32)[C@H](O)[C@@H]1O [Compound 371],> 500
9,C[C@H]1O[C@@H](n2cnc3c(NCc4cc(C(F)(F)F)ccc4F)ncnc32)[C@H](O)[C@@H]1O [Compound 378],> 500
10,CC(Oc1ncnc2c1ncn2[C@@H]1O[C@H](C)[C@@H](O)[C@H]1O)c1ccc(OC(F)F)cc1 (stereo partly drawn) [Compound 263],> 500
11,C[C@H]1O[C@@H](n2c(N[C@H]3CC[C@](C)(O)CC3)nc3c(OCc4ccc(F)cc4)ncnc32)[C@H](O)[C@@H]1O [Compound 129],1 to 20
12,C[C@H]1O[C@@H](n2cnc3c(NCc4cccc(-n5cccn5)c4)ncnc32)[C@H](O)[C@@H]1O [Compound 352],> 500
13,C[C@H]1O[C@@H](n2cnc3c(NCc4ccc(S(C)(=O)=O)cc4)ncnc32)[C@H](O)[C@@H]1O [Compound 277],> 500
14,C[C@H]1O[C@@H](n2cnc3c(OCCc4cccc([N+](=O)[O-])c4)ncnc32)[C@H](O)[C@@H]1O [Compound 275],> 500
15,C[C@H]1O[C@@H](n2c(N[C@@H]3CCC(F)(F)C3)nc3c(OCc4ccc([N+](=O)[O-])cc4)ncnc32)[C@H](O)[C@@H]1O [Compound 83],< 1
16,C[C@H]1O[C@@H](n2cnc3c(SCc4ccc(C(=O)N5CCCC5)cc4)ncnc32)[C@H](O)[C@@H]1O [Compound 390],> 500
17,Cc1nn(C)c(C)c1CNc1nc2c(OCc3ccc([N+](=O)[O-])cc3)ncnc2n1[C@H]1O[C@H](C)[C@@H](O)[C@H]1O [Compound 67],< 1
18,Cc1cc(COc2ncnc3c2nc(NC2CCCC2)n3[C@@H]2O[C@H](C)[C@@H](O)[C@H]2O)ccc1[N+](=O)[O-] [Compound 86],< 1
19,C[C@H]1O[C@@H](n2cnc3c(OCc4ccc(N5CCCC5)cc4)ncnc32)[C@H](O)[C@@H]1O [Compound 377],> 500
20,Cc1cc(C)c(COc2ncnc3c2ncn3[C@@H]2O[C@H](C)[C@@H](O)[C@H]2O)c(C)c1 [Compound 340],> 500
